Test results from patent US9428513B2, “Triazolopyrazine” (Boehringer Ingelheim International GmbH, priority 2013, dated 2016).

These compounds were tested against BRD4-BD1 (Homo sapiens (Human), UniProt O60885) (assay: BRD4-H4 Tetraacetylated Peptide Inhibition AlphaScreen). Conditions: GST-BRD4-BD1 (aa 44-168) / biotinylated Acetyl-Histone H4 (Lys5, 8, 12, 16) peptide.
Type: biochemical
Procedure: Biological Methods BRD4-H4 Tetraacetylated Peptide Inhibition AlphaScreen
Compounds are diluted in serial dilution 1:5 in assay buffer from 10 mM stock in DMSO (100 μM start concentration) in white OptiPlate-384 (PerkinElmer). A mix consisting of 15 nM GST-BRD4-BD1 protein (aa 44-168) or 150 nM GST-BRD4-BD2 (aa 333-460) and 15 nM biotinylated Acetyl-Histone H4 (Lys5, 8, 12, 16) peptide is prepared in assay buffer (50 mM HEPES pH=7.4; 25 mM NaCl; 0.05% Tween 20; 0.1% bovine serum albumin (BSA); 10 mM dithiothreitol (DTT)). 6 μl of the mix is added to the compound dilutions. Subsequently, 6 μl of premixed AlphaLISA Glutathione Acceptor Beads and AlphaScreen Streptavidin Donor Beads from PerkinElmer (in assay buffer at a concentration of 10 μg/ml each) are added and the samples are incubated for 30 min at RT in the dark (shaking 300 rpm). Afterwards, the signal is measured in a PerkinElmer Envision HTS Multilabel Reader using the AlphaScreen protocol from PerkinElmer.
Each plate contains negative controls where biotinylated Acetyl-Histone H4 peptide and GST-BRD4-BD1 or GST-BRD4-BD2 are left out and replaced by assay buffer. Negative control values are entered as low basis value when using the software GraphPad Prism for calculations. Furthermore, a positive control (probe molecule JQ1+ with protein/peptide mix) is pipetted. Determination of IC50 values are carried out using GraphPad Prism 3.03 software (or updates thereof).
In the case of `CCOCCn1c(-c2cn3c(C)nnc3c(NC(C)C)n2)nc2cnc(N3CCOCC3)cc21` [I-5], the IC50 is reported as 33 nM.
For `COC[C@@H](C)n1c(-c2cn3c(C)nnc3c(NC(C)C)n2)nc2cnc(N3CCOCC3)cc21` [I-2], the IC50 was 333 nM.
In the case of `Cc1nnc2c(NC3CCN(S(C)(=O)=O)CC3)nc(-c3nc4cnc(N5CCOCC5)cc4n3CCOC(C)C)cn12` [I-23], the IC50 is reported as 122 nM.
Compound `COCCn1c(-c2cn3c(C)nnc3c(NC(C)C)n2)nc2cnc(N3CCOCC3)cc21` [I-1, 6-[1-(2-methoxyethyl)-6-(morpholin-4-yl)-1H-imidazo[4,5-c]pyridin-2-yl]-3-methyl-N-(propan-2-yl)-[1,2,4]triazolo[4,3-a]pyrazin-8-amine] has an IC50 of 32 nM.
Work on `COC[C@H](C)n1c(-c2cn3c(C)nnc3c(NC(C)C)n2)nc2cc3c(cc21)N(C(C)C)S(=O)(=O)C3(C)C` [I-21] yielded an IC50 of 17 nM.
Compound `COC[C@H](C)n1c(-c2cn3c(C)nnc3c(NC(C)C)n2)nc2cnc(N)cc21` [I-18] has an IC50 of 69 nM.
`COC[C@H](C)n1c(-c2cn3c(C)nnc3c(NC(C)C)n2)nc2cnc(N3CCOCC3)cc21` [I-3] gave an IC50 of 33 nM.
Compound `Cc1nnc2c(NC(C)C)nc(-c3nc4cnc(N5CCOC[C@@H]5C)cc4n3C(C)CC(F)(F)F)cn12` (stereo partly shown) [I-27] has an IC50 of 26 nM.
For `CNc1nc(-c2nc3cnc(N4CCOC[C@@H]4C)cc3n2[C@@H](C)COC)cn2c(C)nnc12` [I-13], the IC50 was 27 nM.
With `COC[C@H](C)n1c(-c2cn3c(C)nnc3c(NC(C)C)n2)nc2ccc(N3CCOC[C@@H]3C)cc21` [I-19] the IC50 was 58 nM.
In the case of `COC[C@H](C)n1c(-c2cn3c(C)nnc3c(NC(C)C)n2)nc2ccc(N3CCOCC3)nc21` [I-28], the IC50 is reported as 69 nM.
In the case of `Cc1nnc2c(NC3CCN(C)CC3)nc(-c3nc4cnc(N5CCOCC5)cc4n3CCOC(C)C)cn12` [I-22], the IC50 is reported as 35 nM.
Compound `Cc1nnc2c(NC(C)C)nc(-c3nc4cnc(N5CCOCC5)cc4n3C[C@@H]3CCCO3)cn12` [I-8] has an IC50 of 55 nM.
For `COC[C@H](C)n1c(-c2cn3c(C)nnc3c(NC(C)C)n2)nc2cc3c(cc21)N(C)C(=O)C3(C)C` [I-16], the IC50 was 22 nM.
For `Cc1nnc2c(NC(C)C)nc(-c3nc4cnc(N5CCOCC5)cc4n3CCOC(C)C)cn12` [I-4], the IC50 was 43 nM.
`COC[C@H](C)n1c(-c2cn3c(C)nnc3c(NC(C)C)n2)nc2ccc(C3CN(C)CCO3)cc21` (stereo partly shown) [I-24] gave an IC50 of 63 nM.
With `CNc1nc(-c2nc3cnc(N4CCOCC4)cc3n2C[C@@H]2CCCO2)cn2c(C)nnc12` [I-7] the IC50 was 55 nM.
`Cc1nnc2c(NC(C)C)nc(-c3nc4cnc(N5CCOCC5)cc4n3C[C@H]3CCCO3)cn12` [I-10] was tested, and the IC50 was 54 nM.
`CNc1nc(-c2nc3cnc(N4CCOCC4)cc3n2[C@H](C)COC)cn2c(C)nnc12` [I-11] showed an IC50 of 549 nM.
Compound `COC[C@H](C)n1c(-c2cn3c(C)nnc3c(NC(C)C)n2)nc2ccc(C(C)C)cc21` [I-15] has an IC50 of 123 nM.
`Cc1nnc2c(NC(C)C)nc(-c3nc4cnc(N5CCOC[C@@H]5C)cc4n3C(C)CC3CC3)cn12` (stereo partly shown) [I-25] showed an IC50 of 9 nM.
In the case of `COCCn1c(-c2cn3c(C)nnc3c(NC(C)C)n2)nc2nc(N3CCOCC3)ccc21` [I-29], the IC50 is reported as 49 nM.
`COC[C@H](C)n1c(-c2cn3c(C)nnc3c(NC(C)C)n2)nc2ccc(C3CCOCC3)cc21` [I-14] gave an IC50 of 49 nM.
`CNc1nc(-c2nc3cnc(N4CCOCC4)cc3n2CC2CCCO2)cn2c(C)nnc12` (stereo not shown) [I-9] was tested, and the IC50 was 65 nM.
`COC[C@H](C)n1c(-c2cn3c(C)nnc3c(N)n2)nc2cnc(N3CCOCC3)cc21` [I-26] was tested, and the IC50 was 123 nM.
`COC[C@H](C)n1c(-c2cn3c(C)nnc3c(NC(C)C)n2)nc2ccc(N)cc21` [I-20] gave an IC50 of 157 nM.
For `COC[C@H](C)n1c(-c2cn3c(C)nnc3c(NC(C)C)n2)nc2cnc(N3CCOC[C@@H]3C)cc21` [I-12], the IC50 was 51 nM.
Compound `CNc1nc(-c2nc3cnc(N4CCOCC4)cc3n2[C@@H](C)COC)cn2c(C)nnc12` [I-6] has an IC50 of 51 nM.
